Experiment [1] concerns Oli-Neu cells, an oligodendrocyte progenitor cell (OPC) line. In words: Cell cycle profile by propidium iodide staining and flow cytometry. The following applies: 0.25% GTA for 24 hours; Sato's medium; compared with GSCs. In kind it is cell-based, murine. As for the experimental part:
(§1) Cell cycle profiles were visualized by propidium iodide (PI) staining as previously described (Perez-Martinez & Jaworski (2005) J Neurosci 25:4917-29). OG35, OG33 and mouse neural stem cells were grown in stem cell medium (SCM; DMEM/F12, B27, 20 ng/ml ea bFGF & EGF) while the oligodendrocyte progenitor cell line, Oli-neu (Jung et al. (1995) Eur J Neurosci 7:1245-65) was grown in Sato's medium (DMEM supplemented with 100 μg/ml apotransferrin, 5 μg/ml insulin, 60 nM triiodothyronine, 30 nM sodium selenite, 100 μM putrescine, 1% horse serum, and 25 μg/ml G418). […] after 0.25% (v/v) GTA treatment, cells were trypsinized, recovered by centrifugation, re-suspended (10^6 cells/ml) in a low-salt PI solution ([…] polyethylene glycol PEG 8000, […], 180 U/ml RNase A, 0.1% Triton X-100, and 4 mM sodium citrate), and incubated at 37° C. for 20 minutes. After addition of an equal volume of high-salt PI solution ([…] polyethylene glycol PEG 8000, […], 180 U/ml RNase A, 0.1% Triton X-100, and 400 mM NaCl) and incubation at 4° C. for 1 hour, cell cycle profiles were recorded by flow cytometry (BD LSR 11 Flow Cytometer, BD Biosciences; Franklin Lakes, N.J.).

The test system of experiment [2] is murine neural stem cells (NSCs). The description is as above. In kind it is cell-based. Particulars: 0.25% GTA in SCM for 24 hours. The protocol: as §1
For experiment [3], the system named is OG33 oligodendroglioma stem cells. The experiment in a line: Growth dynamics, unbiased trypan blue exclusion based cytometry. In kind it is cell-based, human. Particulars: 0.25% GTA, 5 days of treatment. As for the experimental part:
(§2) Growth dynamics were assessed using unbiased trypan blue exclusion based cytometry. Cells were plated (at 10,000 cells per well of a 24-well plate) directly in the absence or presence of 0.25% GTA. After 1, 3, and 5 days of treatment, cells were typsinized, collected via centrifugation, and counted according to the manufacturer's instructions (Countess Automated Cell Counter; Invitrogen Life Technologies; Carlsbad, Calif.).

The subject of experiment [4] is OG35 oligodendroglioma stem cells. The experiment is described as above. In kind it is cell-based, human. Particulars: 0.25% GTA, 5 days of treatment. As for the experimental part:
as §2

The test system of experiment [5] is OG35 oligodendroglioma GSCs. The experiment in a line: Orthotopic graft in athymic mice, survival and bioluminescent imaging. The following applies: OG35 engrafted mice. The format is in vivo. As for the experimental part: (§3) Cells (2,500 cells in 4 μl) were injected into the right striatum (1 mm anterior, 1.5 mm lateral to bregma, 3.5 mm deep) of adult athymic mice (8-week-old, 25-28 g). […]
(§4) For in vivo imaging, mice were injected i.p. with 150 mg/kg D-luciferin potassium salt 5 minutes prior to imaging under 1.5% inhaled isoflurane. Peak efflux was determined from an average of 15 bioluminescent acquisitions, with 1 min inter-acquisition intervals, using the auto-exposure setting. Total photon efflux was determined by drawing regions of interest over the emitted region and setting thresholds for each mouse to maximize the number of pixels encircled using Living Image acquisition and analysis software (Version 3.0.3.5, Caliper Life Sciences, Hopkinton, Mass.). […]
(§5) Tumor bioluminescence (rate of flux change over time) and tumor volume were compared using a Mann-Whitney test. Survival was analyzed using Kaplan-Meier curves [Kaplan, EL and P Meier. (1958) J Am Stat Assoc 53:457-481] and comparisons between groups were analyzed with a log-rank test [Peto, R and J Peto. […]

Another experiment concerns GBM12 astrocytoma GSCs. The experiment in a line: Orthotopic graft in athymic mice, survival. In kind it is in vivo. Particulars: GBM 12 engrafted mice; GTA alone 5.8 g/kg daily; p<0.0001. As for the experimental part: as §3, §4, §5
The subject of the next experiment is OG35 GSCs. In words: Orthotopic graft in athymic mice, comparison of priming, concurrent and salvage regimens. In kind it is in vivo. Particulars: OG35 GSC engrafted mice; priming with GTA two days prior to TMZ treatment. The protocol:
Cells (2,500 cells in 4 μl) were injected into the right striatum (1 mm anterior, 1.5 mm lateral to bregma, 3.5 mm deep) of adult athymic mice (8-week-old, 25-28 g). GTA (5.8 g/kg plus 10% v/v Ora-Sweet SF® (Paddock Laboratories, Minneapolis, Minn.) was administered intragastrically daily starting on the third post-operative day. TMZ (20 mg/kg) was administered intragastrically in an oral suspension vehicle containing 2.5 mg/ml Povidone K30, 0.013% citric acid, 50% Ora-Plus® (Paddock Laboratories, Minneapolis, Minn.), 50% Ora-Sweet SF® (Paddock Laboratories, Minneapolis, Minn.) on days 5, 7, 9, 11, and 13. Mice receiving the combined GTA/TMZ therapy received the TMZ in the morning (˜7-8 AM) and GTA in the evening (˜6-7 PM).
Orthotopic grafting was performed as described above in Example 6. In addition to the treatments described above, the following treatments were tested: 1) concurrent (GTA and TMZ on days 5, 7, 9, 11, 13, with GTA alone on days 6, 8, 10, 12 and continuous GTA afterwards), and 2) salvage (GTA administered daily after single course of TMZ on days 5, 7, 9, 11, and 13).

With `CC(=O)OCC(COC(C)=O)OC(C)=O` [GTA, glyceryltriacetate], the Cell cycle arrest entry in experiment [1] is reported as “less effect”; in experiment [2], “no effect”. The Cell number entry in experiment [3] and in experiment [4] was “significantly decreased cell number” throughout. Further, the Survival entry in experiment [5] (GTA alone 5.8 g/kg intragastrically daily) is given as “did not significantly increase survival”. For the same compound, in experiment [5] (GTA with TMZ, bioluminescent imaging), the “Time to tumor regrowth after termination of TMZ treatment” value is recorded as “significantly delayed”. In addition, in the experiment on GBM12 astrocytoma GSCs, the “Survival relative to vehicle treated mice” value was “increased survival relative to vehicle treated mice”. Moreover, the “Survival versus TMZ alone” value with OG35 GSCs is on record as “increased survival over TMZ alone”.

For the origin of these results see patent US10765654B2, “Methods and compounds for treating cancer” (University of Vermont and State Agricultural College, priority 2011, dated 2020).
